Test results as given in patent US10669272B2, “Substituted naphthyridinone compounds useful as T cell activators” (BRISTOL-MYERS SQUIBB COMPANY, priority 2018, dated 2020).
Structures can show the parent of a compound that is named as a salt. Where two headings read alike, the source gives them in different places.

What was measured:
human DGKζ = target: T1, human DGKζ (Homo sapiens, UniProt Q13574); assay: DGKζ LIPGLO assay (extruded liposome substrate), in vitro DGK inhibition; assay type: biochemical; details: read-out: DGKz LIPGLO IC50
T1 construct: TVMV protease cleavage site (C); Hexa-His (C); made in house; host or cells: Sf9 insect cells (baculovirus, Bac-to-Bac)
T1 sequence (Q13574 with tags, fused parts or gaps isoform Q13574-4): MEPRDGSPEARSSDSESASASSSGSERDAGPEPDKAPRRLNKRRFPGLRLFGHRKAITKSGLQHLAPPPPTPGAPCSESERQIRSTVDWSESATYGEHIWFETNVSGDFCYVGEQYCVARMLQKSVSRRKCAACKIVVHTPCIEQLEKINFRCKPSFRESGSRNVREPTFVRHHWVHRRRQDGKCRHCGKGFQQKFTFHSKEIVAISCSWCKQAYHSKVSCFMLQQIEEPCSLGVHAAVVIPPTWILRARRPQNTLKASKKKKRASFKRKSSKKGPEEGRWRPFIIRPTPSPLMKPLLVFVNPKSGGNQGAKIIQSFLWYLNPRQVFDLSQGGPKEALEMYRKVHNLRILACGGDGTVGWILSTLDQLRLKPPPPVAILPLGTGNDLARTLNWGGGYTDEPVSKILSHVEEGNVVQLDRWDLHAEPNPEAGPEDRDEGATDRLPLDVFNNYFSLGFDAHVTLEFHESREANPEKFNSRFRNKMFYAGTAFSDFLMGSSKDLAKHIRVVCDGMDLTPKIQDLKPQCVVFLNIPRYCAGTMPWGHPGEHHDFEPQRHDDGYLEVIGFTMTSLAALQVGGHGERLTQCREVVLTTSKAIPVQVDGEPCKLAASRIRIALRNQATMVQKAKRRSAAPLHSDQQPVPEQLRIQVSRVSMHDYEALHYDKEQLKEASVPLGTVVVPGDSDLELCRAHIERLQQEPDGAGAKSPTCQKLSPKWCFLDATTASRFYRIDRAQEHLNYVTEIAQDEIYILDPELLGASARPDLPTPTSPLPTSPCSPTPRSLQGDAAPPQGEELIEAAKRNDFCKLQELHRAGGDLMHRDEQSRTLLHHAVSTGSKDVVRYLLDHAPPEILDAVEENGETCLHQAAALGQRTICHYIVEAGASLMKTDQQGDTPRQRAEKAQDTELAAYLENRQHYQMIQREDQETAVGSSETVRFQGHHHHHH

human DGKα = target: T2, human DGKα (Homo sapiens, UniProt P23743); assay: DGKα LIPGLO assay (extruded liposome substrate), in vitro DGK inhibition; assay type: biochemical; details: read-out: DGKa LIPGLO IC50
T2 construct: TVMV protease cleavage site (C); Hexa-His (C); made in house; host or cells: Sf9 insect cells (baculovirus, Bac-to-Bac)
T2 sequence (P23743 with tags, fused parts or gaps): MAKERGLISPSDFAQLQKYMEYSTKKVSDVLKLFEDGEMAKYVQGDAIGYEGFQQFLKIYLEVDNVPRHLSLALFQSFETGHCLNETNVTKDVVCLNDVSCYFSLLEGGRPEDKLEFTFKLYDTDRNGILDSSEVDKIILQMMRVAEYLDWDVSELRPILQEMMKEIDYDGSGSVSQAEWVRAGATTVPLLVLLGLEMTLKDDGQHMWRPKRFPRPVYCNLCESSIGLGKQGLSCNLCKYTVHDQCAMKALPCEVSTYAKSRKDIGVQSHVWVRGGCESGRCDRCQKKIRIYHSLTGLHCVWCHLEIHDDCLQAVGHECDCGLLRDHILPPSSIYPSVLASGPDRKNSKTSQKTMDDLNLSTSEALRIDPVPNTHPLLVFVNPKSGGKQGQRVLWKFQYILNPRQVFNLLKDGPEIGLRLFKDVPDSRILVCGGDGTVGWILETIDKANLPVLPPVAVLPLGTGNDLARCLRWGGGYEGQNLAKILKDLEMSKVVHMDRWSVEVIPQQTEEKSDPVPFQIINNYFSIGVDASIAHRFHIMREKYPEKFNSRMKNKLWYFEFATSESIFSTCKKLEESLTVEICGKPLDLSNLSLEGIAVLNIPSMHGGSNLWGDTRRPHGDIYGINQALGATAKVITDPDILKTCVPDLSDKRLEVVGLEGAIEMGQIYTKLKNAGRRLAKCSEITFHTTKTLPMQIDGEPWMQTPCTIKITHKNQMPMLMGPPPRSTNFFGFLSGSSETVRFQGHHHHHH

IC50 (human DGKζ; liposome (LIPGLO) assay)	IC50 (human DGKα; liposome (LIPGLO) assay)	IC50 (human DGKζ; DGKζ liposome (LIPGLO) assay)	IC50 (human DGKα; DGKα liposome (LIPGLO) assay)	Compound
0.013 µM	0.031 µM	–	–	CC[C@@H]1CN(c2cc(=O)n(C)c3ccc(C#N)nc23)[C@@H](C)CN1C(c1ccc(F)cc1)c1nc(C2CC2)no1 (stereo partly drawn) [Example 1116]
–	–	35 µM	5.7 µM	C[C@@H]1CN(c2c(C#N)c(=O)n(C)c3ccc(C#N)nc23)[C@@H](C)CN1C(c1ccc(F)cc1)c1ccc(C(F)(F)F)cn1 (single isomer, unassigned) [Example 837]
6 µM	2.6 µM	–	–	C[C@@H]1CN(c2cc(=O)n(C)c3ccc(C#N)nc23)[C@@H](C)CN1C(CF)c1ccc(F)cc1 (mixture of isomers) [Example 556, 8-[(2S,5R)-4-[2-fluoro-1-(4-fluorophenyl)ethyl]-2,5-dimethylpiperazin-1-yl]-5-methyl-6-oxo-5,6-dihydro-1,5-naphthyridine-2-carbonitrile]
17 µM	0.84 µM	–	–	CC(c1ccc(OC(F)F)cc1)N1C[C@H](C)N(c2c(C#N)c(=O)n(C)c3ccc(C#N)nc23)C[C@H]1C (single isomer, unassigned) [Example 1376]
–	–	5.7 µM	1.3 µM	C[C@@H]1CN(c2c(C#N)c(=O)n(C)c3ccc(C#N)nc23)[C@@H](C)CN1C(c1ccc(F)cc1)c1cn(C)cn1 (single isomer, unassigned) [Example 852]
0.05 µM	0.16 µM	–	–	CC[C@H]1CN(C(c2ccc(F)cc2)c2csc(C(F)(F)F)n2)[C@H](CC)CN1c1cc(=O)n(C)c2ccc(C#N)nc12 (single isomer, unassigned) [Example 1362]
11 µM	15 µM	–	–	CC(c1c(F)cc(F)cc1F)N1C[C@H](C)N(c2cc(=O)n(C)c3ccc(C#N)nc23)C[C@H]1C (single isomer, unassigned) [Example 488]
42 µM	23 µM	–	–	C[C@@H]1CN(C(c2ccc(F)cc2)c2ccc(F)cc2)[C@@H](C)CN1c1c(C#N)c(=O)n(C)c2ccc(Br)nc12 [Example 5, 4-((2R,5S)-4-(bis(4-fluorophenyl)methyl)-2,5-dimethylpiperazin-1-yl)-6-bromo-1-methyl-2-oxo-1,2-dihydro-1,5-naphthyridine-3-carbonitrile]
–	–	2.7 µM	0.8 µM	C[C@@H]1CN(c2c(C#N)c(=O)n(C)c3ccc(C#N)nc23)CCN1C(c1ccc(Cl)cc1)c1ccc(Cl)cn1 (stereo partly drawn) [Example 931]
0.083 µM	0.019 µM	–	–	CC[C@H]1CN(C(C)c2ccc(OC(F)(F)F)cc2)[C@H](COC)CN1c1cc(=O)n(C)c2ccc(C#N)nc12 (single isomer, unassigned) [Example 1408]
–	–	7.1 µM	1.7 µM	C[C@@H]1CN(c2c(C#N)c(=O)n(C)c3ccc(C#N)nc23)CCN1Cc1cccc(OC(F)(F)F)c1 [Example 1008]
10 µM	7.1 µM	–	–	COC(CN1C[C@H](C)N(c2cc(=O)n(C)c3ccc(C#N)nc23)C[C@H]1C)c1ccc(F)cc1 (stereo partly drawn) [Example 561, 8-((2S,5R)-4-(2-(4-fluorophenyl)-2-methoxyethyl)-2,5-dimethylpiperazin-1-yl)-5-methyl-6-oxo-5,6-dihydro-1,5-naphthyridine-2-carbonitrile]
11 µM	41 µM	–	–	Cc1c(F)ccc(C(C)N2C[C@H](C)N(c3cc(=O)n(C)c4ccc(C#N)nc34)C[C@H]2C)c1Cl (single isomer, unassigned) [Example 487]
–	–	6.7 µM	1.1 µM	C[C@@H]1CN(c2c(C#N)c(=O)n(C)c3ccc(C#N)nc23)CCN1C(c1ccc(F)cc1)c1cnccn1 (stereo partly drawn) [Example 943]
180 µM	7.2 µM	–	–	Cn1c(=O)c(C#N)c(N2CCN(C(c3ccc(F)cc3)c3ccc(F)cc3)C(C(N)=O)C2)c2nc(C#N)ccc21 (single isomer, unassigned) [Example 58, 1-(bis (4-fluorophenyl)methyl)-4-(3,6-dicyano-1-methyl-2-oxo-1,2-dihydro-1,5-naphthyridin-4-yl)piperazine-2-carboxamide]
1.8 µM	0.34 µM	–	–	CC(C)Oc1cc(F)ccc1CN1C[C@H](C)N(c2cc(=O)n(C)c3ccc(C#N)nc23)C[C@H]1C [Example 598]
–	–	2.2 µM	14 µM	C[C@@H]1CN(c2c(C#N)c(=O)n(C)c3ccc(C#N)nc23)CCN1C(c1ccccc1)c1cc(F)cc(F)c1 (stereo partly drawn) [Example 874]
13 µM	0.39 µM	–	–	C[C@@H]1CN(c2cc(=O)n(C)c3ccc(C#N)nc23)[C@@H](C)CN1Cc1cccc2c1OCCN2C(=O)OC(C)(C)C [Example 630]
37 µM	1 µM	–	–	C[C@@H]1CN(c2cc(=O)n(C)c3ccc(C#N)nc23)[C@@H](C)CN1C(c1ccc(F)cc1)c1cn(C)cn1 (stereo partly drawn) [Example 708]
–	–	5.5 µM	2.1 µM	C[C@@H]1CN(c2c(C#N)c(=O)n(C)c3ccc(C#N)nc23)CCN1C(c1ccc(Cl)cc1)c1ncccc1F (stereo partly drawn) [Example 913]
200 µM	240 µM	–	–	Cn1c(=O)cc(N2CCN(C(c3ccc(F)cc3)c3ccc(F)cc3)CC2C(N)=O)c2nc(C#N)ccc21 (single isomer, unassigned) [Example 141, 4-(bis(4-fluorophenyl)methyl)-1-(6-cyano-1-methyl-2-oxo-1,2-dihydro-1,5-naphthyridin-4-yl)piperazine-2-carboxamide]
13 µM	12 µM	–	–	CC(c1ccc(C(F)(F)F)cc1F)N1C[C@H](C)N(c2cc(=O)n(C)c3ccc(C#N)nc23)C[C@H]1C (single isomer, unassigned) [Example 412]
1.8 µM	4.1 µM	–	–	CC[C@@H]1CN(c2cc(=O)n(C)c3ccc(C#N)nc23)[C@@H](C)CN1C(C)c1c(F)cc(F)cc1F (single isomer, unassigned) [Example 1090]
0.15 µM	3.5 µM	–	–	CC(c1cc(F)c(F)c(F)c1)N1C[C@H](C)N(c2cc(=O)n(C)c3ccc(C#N)nc23)C[C@H]1C (single isomer, unassigned) [Example 1240]
–	–	120 µM	24 µM	COC(=O)c1ccc(C(C)N2C[C@H](C)N(c3c(C#N)c(=O)n(C)c4ccc(C#N)nc34)C[C@H]2C)cc1 (single isomer, unassigned) [Example 794]
28 µM	9.3 µM	–	–	C[C@@H]1CN(c2c(C#N)c(=O)n(C)c3ccc(C#N)nc23)CCN1C(c1ccc(Cl)cc1)c1ccncn1 (single isomer, unassigned) [Example 320]
0.02 µM	0.12 µM	–	–	CC[C@H]1CN(C(C)c2ccc(C3CC3)cc2F)[C@H](CC)CN1c1cc(=O)n(C)c2ccc(C#N)nc12 (single isomer, unassigned) [Example 1357]
0.84 µM	0.71 µM	–	–	CC[C@H]1CN(C(c2ccc(C)cc2)c2ccc(Cl)cc2)[C@H](C)CN1c1cc(=O)n(C)c2ccc(C#N)nc12 (single isomer, unassigned) [Example 1122]
–	–	3.3 µM	1 µM	Cc1ccc(C(c2ccc(Cl)cn2)N2CCN(c3c(C#N)c(=O)n(C)c4ccc(C#N)nc34)C[C@H]2C)cc1 (single isomer, unassigned) [Example 936]
240 µM	240 µM	–	–	CC(C)C(C)(F)C1CN(c2cc(=O)n(C)c3ccc(C#N)nc23)CCN1C(c1ccc(F)cc1)c1ccc(F)cc1 (single isomer, unassigned) [Example 91, 8-(4-(bis(4-fluorophenyl)methyl)-3-(2-fluoro-3-methylbutan-2-yl)piperazin-1-yl)-5-methyl-6-oxo-5,6-dihydro-1,5-naphthyridine-2-carbonitrile, TFA]
